Entries after “also recorded” stand apart in the source; their conditions may differ.
The substances below were run on microorganisms (e.g., bacteria, yeasts, fungi) (assay: Targeting peptide binding to target microorganisms (Table 3)). Settings: microorganism the targeting peptide binds; binding in aqueous buffers varied by peptide solubility, preferably 1x PBS.

**Q.** How did the “Target(s)” value turn out when “1T-3 (VLGIAGGLDAYGELVGGN; Peptide with targeting and/or antimicrobial activity) [Peptide 1T-3]” was run?
**A.** Its value is “S. mutans; also recorded: S. gordonii”.

**Q.** How did the “Target(s)” value turn out when “1T-4 (LDAYGELVGGN; Peptide with targeting and/or antimicrobial activity) [Peptide 1T-4]” was run?
**A.** The value was “S. gordonii; also recorded: S. sanguinis; also recorded: S. oralis; also recorded: V. atypica; also recorded: L. casei; also recorded: S. mutans”.

**Q.** How did the “Target(s)” value turn out when “1T-6 (KFINGVLSQFVLERK; Peptide with targeting and/or antimicrobial activity) [Peptide 1T-6]” was run?
**A.** The value was “S. mutans”.

**Q.** Which “Target(s)” value does the source give for “1T-7 (SQRIIEPVKSPQPYPGFSVS; Peptide with targeting and/or antimicrobial activity) [Peptide 1T-7]” here?
**A.** The value was “M. xanthus”.

**Q.** “1T-8 (FSVAACGEQRAVTFVLLIEDLI; Peptide with targeting and/or antimicrobial activity) [Peptide 1T-8]” was tested. Which “Target(s)” value did it give?
**A.** Its value is “M. xanthus”.

**Q.** For “1T-9 (WAWAESPRCVSTRSNIHALAFRVEVAALT; Peptide with targeting and/or antimicrobial activity) [Peptide 1T-9]”, which “Target(s)” value is on record?
**A.** Its value is “M. xanthus”.

**Q.** How did the “Target(s)” value turn out when “1T-10 (SPAGLPGDGDEA; Peptide with targeting and/or antimicrobial activity) [Peptide 1T-10]” was run?
**A.** The value was “M. xanthus”.

**Q.** With “1T-11 (RISE; Peptide with targeting and/or antimicrobial activity) [Peptide 1T-11]” as the substance, how does the “Target(s)” value read?
**A.** Its value is “S. mutans; also recorded: S. epidermidis; also recorded: P. aeruginosa”.

**Q.** Which “Target(s)” value does the source give for “1T-12 (FGNIFKGLKDVIETIVKWTAAK; Peptide with targeting and/or antimicrobial activity) [Peptide 1T-12]” here?
**A.** The value was “C. xerosis; also recorded: C. striatum; also recorded: S. epidermidis; also recorded: S. mutans”.

**Q.** “1T-13 (FRSPCINNNSLQPPGVYPAR; Peptide with targeting and/or antimicrobial activity) [Peptide 1T-13]” was tested. Which “Target(s)” value did it give?
**A.** The value was “S. aureus; also recorded: S. epidermidis; also recorded: P. aeruginosa”.

**Q.** “1T-14 (ALAGLAGLISGK; Peptide with targeting and/or antimicrobial activity) [Peptide 1T-14]” was tested. Which “Target(s)” value did it give?
**A.** Its value is “S. mutans; also recorded: S. aureus; also recorded: S. epidermidis; also recorded: C. xerosis”.

**Q.** “1T-15 (DVILRVEAQ; Peptide with targeting and/or antimicrobial activity) [Peptide 1T-15]” was tested. Which “Target(s)” value did it give?
**A.** Its value is “S. mutans”.

**Q.** How did the “Target(s)” value turn out when “1T-16 (IDMR; Peptide with targeting and/or antimicrobial activity) [Peptide 1T-16]” was run?
**A.** Its value is “P. aeruginosa”.

**Q.** Which “Target(s)” value does the source give for “1T-17 (NNAIVYIS; Peptide with targeting and/or antimicrobial activity) [Peptide 1T-17]” here?
**A.** The value was “S. mutans”.

**Q.** With “1T-18 (YSKTLHFAD; Peptide with targeting and/or antimicrobial activity) [Peptide 1T-18]” as the substance, how does the “Target(s)” value read?
**A.** Its value is “S. aureus; also recorded: S. epidermidis; also recorded: C. striatum; also recorded: P. aeruginosa”.

**Q.** How did the “Target(s)” value turn out when “1T-19 (PGAFRNPQMPRG; Peptide with targeting and/or antimicrobial activity) [Peptide 1T-19]” was run?
**A.** The value was “S. aureus; also recorded: S. epidermidis; also recorded: P. aeruginosa”.

**Q.** “1T-20 (PALVDLSNKEAVWAVLDDHS; Peptide with targeting and/or antimicrobial activity) [Peptide 1T-20]” was tested. Which “Target(s)” value did it give?
**A.** The value was “S. mutans; also recorded: P. aeruginosa”.

**Q.** How did the “Target(s)” value turn out when “1T-21 (YVEEAVRAALKKEARISTEDTPVNLPSFDC; Peptide with targeting and/or antimicrobial activity) [Peptide 1T-21]” was run?
**A.** Its value is “S. mutans; also recorded: P. aeruginosa”.

**Q.** With “1T-22 (VPLDDGTRRPEVARNRDKDRED; Peptide with targeting and/or antimicrobial activity) [Peptide 1T-22]” as the substance, how does the “Target(s)” value read?
**A.** Its value is “S. epidermidis; also recorded: P. aeruginosa”.

**Q.** “1T-23 (PALVDLSNKEAVWAVLDDHS; Peptide with targeting and/or antimicrobial activity) [Peptide 1T-23]” was tested. Which “Target(s)” value did it give?
**A.** The value was “S. mutans; also recorded: P. aeruginosa”.

**Q.** For “1T-24 (EEAEEKLAEVSQAVKRLVR; Peptide with targeting and/or antimicrobial activity) [Peptide 1T-24]”, which “Target(s)” value is on record?
**A.** Its value is “P. aeruginosa”.

**Q.** How did the “Target(s)” value turn out when “1T-25 (VGLDVSVLVLFFGLQLLSVLLGAMIR; Peptide with targeting and/or antimicrobial activity) [Peptide 1T-25]” was run?
**A.** The value was “S. aureus; also recorded: S. epidermidis; also recorded: C. xerosis; also recorded: C. striatum; also recorded: P. aeruginosa”.

**Q.** For “1T-26 (LTILPTTFFAIIVPILAVAFIAYSGFKIKGIVEHKDQW; Peptide with targeting and/or antimicrobial activity) [Peptide 1T-26]”, which “Target(s)” value is on record?
**A.** Its value is “S. mutans; also recorded: S. aureus; also recorded: S. epidermidis; also recorded: C. jeikeium; also recorded: C. xerosis; also recorded: C. striatum; also recorded: P. aeruginosa”.

**Q.** Which “Target(s)” value does the source give for “1T-27 (ALFVSLEQFLVVVAKSVFALCHSGTLS; Peptide with targeting and/or antimicrobial activity) [Peptide 1T-27]” here?
**A.** Its value is “S. mutans; also recorded: S. aureus; also recorded: S. epidermidis; also recorded: C. jeikeium; also recorded: C. xerosis; also recorded: C. striatum; also recorded: P. aeruginosa”.

**Q.** With “1T-28 (VSRDEAMEFIDREWTTLQPAGKSHA; Peptide with targeting and/or antimicrobial activity) [Peptide 1T-28]” as the substance, how does the “Target(s)” value read?
**A.** The value was “P. aeruginosa”.

**Q.** How did the “Target(s)” value turn out when “1T-29 (GSVIKKRRKRMSKKKHRKMLRRTRVQRRKLGK; Peptide with targeting and/or antimicrobial activity) [Peptide 1T-29]” was run?
**A.** The value was “S. epidermidis; also recorded: C. jeikeium; also recorded: C. xerosis; also recorded: C. striatum; also recorded: P. aeruginosa; also recorded: S. mutans; also recorded: S. aureus”.

**Q.** How did the “Target(s)” value turn out when “1T-30 (GKAKPYQVRQVLRAVDKLETRRKKGGR; Peptide with targeting and/or antimicrobial activity) [Peptide 1T-30]” was run?
**A.** Its value is “S. aureus; also recorded: S. epidermidis; also recorded: C. xerosis; also recorded: C. striatum; also recorded: P. aeruginosa”.

**Q.** With “1T-31 (NATGTDIGEVTLTLGRFS; Peptide with targeting and/or antimicrobial activity) [Peptide 1T-31]” as the substance, how does the “Target(s)” value read?
**A.** The value was “S. mutans; also recorded: P. aeruginosa”.

**Q.** “1T-32 (VSFLAGWLCLGLAAWRLGNA; Peptide with targeting and/or antimicrobial activity) [Peptide 1T-32]” was tested. Which “Target(s)” value did it give?
**A.** The value was “S. mutans”.

**Q.** With “1T-33 (VRTLTILVIFIFNYLKSISYKLKQPFENNLAQSMISI; Peptide with targeting and/or antimicrobial activity) [Peptide 1T-33]” as the substance, how does the “Target(s)” value read?
**A.** Its value is “S. aureus; also recorded: S. epidermidis; also recorded: C. jeikeium; also recorded: C. xerosis; also recorded: C. striatum; also recorded: P. aeruginosa”.

**Q.** “1T-34 (AFWLNILLTLLGYIPGIVHAVYIIAKR; Peptide with targeting and/or antimicrobial activity) [Peptide 1T-34]” was tested. Which “Target(s)” value did it give?
**A.** Its value is “S. aureus; also recorded: S. epidermidis; also recorded: C. jeikeium; also recorded: C. xerosis; also recorded: C. striatum; also recorded: P. aeruginosa”.

**Q.** How did the “Target(s)” value turn out when “1T-35 (EICLTLVFPIRGSYSEAAKFPVPIHIVEDGTVELPK; Peptide with targeting and/or antimicrobial activity) [Peptide 1T-35]” was run?
**A.** Its value is “P. aeruginosa”.

Source: patent US20110039762A1, “TARGETED ANTIMICROBIAL MOIETIES” (C3 JIAN, INC., priority 2009, published 2011)
